Experimental data as given in patent US20220144815A1, “1,3,4-OXADIAZOLES AND THEIR DERIVATIVES AS NEW ANTIFUNGAL AGENTS” (Bayer Aktiengesellschaft, priority 2018, published 2022).
Read-outs that look alike come from different tables or passages of the source.

Legend:
Puccinia recondita = assay: Example D: in vivo preventive test (brown rust on wheat); conditions: 264 h, 500 ppm of tested compound, preventive spray, evaluated 11 days after inoculation, read-out: efficacy
Description: Solvent: 5% by volume of dimethyl sulfoxide • 10% by volume of acetone Emulsifier: 1 μL of Tween® 80 per mg of active ingredient The tested compounds were made soluble and homogenized in a mixture of dimethyl sulfoxide/acetone/Tween® 80 and then diluted in water to the desired concentration. The young plants of wheat were treated by spraying the tested compound prepared as described above. Control plants were treated only with an aqueous solution of acetone/dimethyl sulfoxide/Tween® 80. After 24 hours, the plants were contaminated by spraying the leaves with an aqueous suspension of Puccinia recondita spores. The contaminated wheat plants were incubated for 24 hours at 20° C. and at 100% relative humidity and then for 10 days at 20° C. and at 70-80% relative humidity. The test was evaluated 11 days after the inoculation. 0% means an efficacy which corresponds to that of the control plants while an efficacy of 100% means that no disease was observed.

[1] = Log P by HPLC on reversed phase columns, method [a] (EEC directive 79/831 Annex V.A8); format: physicochemical; conditions: reversed phase HPLC column, read-out: logP
Summary of the method: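 Reversed-phase HPLC with LC-UV detection per EEC directive 79/831 Annex V.A8, acidic eluent of 0.1% formic acid in water and acetonitrile, linear gradient 10% to 95% acetonitrile. Log P derived from retention times, calibrated against straight-chain alkan-2-ones (C3–C16) by linear interpolation.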

Phakopsora pachyrhizi = assay: Example F: in vivo preventive test (soybeans), DMSO/acetone/Tween 80; conditions: 288 h, 500 ppm of tested compound, preventive spray, soybean, evaluated 12 days after inoculation, read-out: efficacy
Description: Solvent: 5% by volume of dimethyl sulfoxide • 10% by volume of acetone
Emulsifier: 1 μL of Tween® 80 per mg of active ingredient
The tested compounds were made soluble and homogenized in a mixture of dimethyl sulfoxide/acetone/Tween® 80 and then diluted in water to the desired concentration.
The young plants of wheat were treated by spraying the tested compound prepared as described above. Control plants were treated only with an aqueous solution of acetone/dimethyl sulfoxide/Tween® 80.
After 24 hours, the plants were contaminated by spraying the leaves with an aqueous suspension of Phakospora pachyrhizi spores. The contaminated soybean plants were incubated for 24 hours at 24° C. and at 100% relative humidity and then for 11 days at 24° C. and at 70-80% relative humidity.
The test was evaluated 12 days after the inoculation. 0% means an efficacy which corresponds to that of the control plants while an efficacy of 100% means that no disease was observed.

[2] = tested on: Colletotrichum lindemuthianum; assay: Example B: in vitro cell test, spore germination and mycelium growth in liquid culture; format: cell-based; conditions: 144 h, 20 ppm of tested compound, 6 days incubation, read-out: efficacy (inhibition of fungal growth)
Description: • Solvent: dimethyl sulfoxide Culture medium: 14.6 g anhydrous D-glucose (VWR), • 7.1 g mycological peptone (Oxoid), • 1.4 g granulated yeast extract (Merck), QSP 1 liter Inoculum: spore suspension The tested compounds were solubilized in dimethyl sulfoxide and the solution used to prepare the required range of concentrations. The final concentration of dimethyl sulfoxide used in the assay was ≤1%. A spore suspension of Colletotrichum lindemuthianum was prepared and diluted to the desired spore density. The compounds were evaluated for their ability to inhibit spore germination and mycelium growth in liquid culture assay. The compounds were added in the desired concentration to the culture medium with spores. After 6 days incubation, fungi-toxicity of compounds was determined by spectrometric measurement of mycelium growth. Inhibition of fungal growth was determined by comparing the absorbance values in wells containing the tested compounds with the absorbance in control wells without tested compounds.

Alternaria brassicae = assay: Example E: in vivo preventive test (cabbage); conditions: 144 h, 500 ppm of tested compound, preventive spray, evaluated 6 days after inoculation, read-out: efficacy
Description: Solvent: 5% by volume of dimethyl sulfoxide • 10% by volume of acetone Emulsifier: 1 μL of Tween® 80 per mg of active ingredient The tested compounds were made soluble and homogenized in a mixture of Dimethyl sulfoxide/Acetone/Tween® 80 and then diluted in water to the desired concentration. The young plants of cabbage were treated by spraying the tested compound prepared as described above. Control plants were treated only with an aqueous solution of Acetone/Dimethyl sulfoxide/Tween® 80. After 24 hours, the plants were contaminated by spraying the leaves with an aqueous suspension of Alternaria brassicae spores. The contaminated cabbage plants were incubated for 6 days at 20° C. and at 100% relative humidity. The test was evaluated 6 days after the inoculation. 0% means an efficacy which corresponds to that of the control plants while an efficacy of 100% means that no disease was observed.

[3] = log P determined according to method [a] (HPLC on reversed phase columns)
[4] = method [a], HPLC on reversed phase columns

C#CC(Nc1ncc(-c2nnc(C(F)F)o2)cn1)c1ccccc1 (racemic) [I.118, 5-[5-(difluoromethyl)-1,3,4-oxadiazol-2-yl]-N-[(1RS)-1-phenylprop-2-yn-1-yl]pyrimidin-2-amine]
pest or weed control at 500 µg/mL (Puccinia recondita): 80 to 89% | chromatographic logP [1, 3]: 2.86 | pest or weed control at 500 µg/mL (Phakopsora pachyrhizi): 90 to 100% | inhibition of growth at 20 µg/mL [2]: 90 to 100%

CCC(Nc1ncc(-c2nnc(C(F)F)o2)cn1)c1ccccc1 (racemic) [I.122, 5-[5-(difluoromethyl)-1,3,4-oxadiazol-2-yl]-N-[(1RS)-1-phenylpropyl]pyrimidin-2-amine]
pest or weed control at 500 µg/mL (Puccinia recondita): 90 to 100% | chromatographic logP [1, 3]: 3.16 | pest or weed control at 500 µg/mL (Phakopsora pachyrhizi): 90 to 100% | inhibition of growth at 20 µg/mL [2]: 90 to 100%

CC(Oc1ncc(-c2nnc(C(F)F)o2)cn1)c1ccc(F)cc1 (racemic) [I.127, 5-[5-(difluoromethyl)-1,3,4-oxadiazol-2-yl]-2-{[(1RS)-1-(4-fluorophenyl)ethyl]oxy}pyrimidine]
pest or weed control at 500 µg/mL (Puccinia recondita): 70 to 79% | chromatographic logP [1, 3]: 3.13 | pest or weed control at 500 µg/mL (Phakopsora pachyrhizi): 90 to 100%

CON(c1ncc(-c2nnc(C(F)F)o2)cn1)C(C)c1ccccc1 (racemic) [I.147, N-{5-[5-(difluoromethyl)-1,3,4-oxadiazol-2-yl]pyrimidin-2-yl}-O-methyl-N-[(1RS)-1-phenylethyl]hydroxylamine]
chromatographic logP [1, 3]: 3.37 | pest or weed control at 500 µg/mL (Phakopsora pachyrhizi): 80 to 89% | pest or weed control at 500 µg/mL (Alternaria brassicae): 90 to 100%

CN(C(=O)c1ccc(-c2nnc(C(F)(F)F)o2)cc1)c1ccccc1 [I.026, N-methyl-N-phenyl-4-[5-(trifluoromethyl)-1,3,4-oxadiazol-2-yl]benzamide]
pest or weed control at 500 µg/mL (Puccinia recondita): 80 to 89%

Fc1ccccc1Nc1ncc(-c2nnc(C(F)F)o2)cn1 [I.093, 5-[5-(difluoromethyl)-1,3,4-oxadiazol-2-yl]-N-(2-fluorophenyl)pyrimidin-2-amine]
pest or weed control at 500 µg/mL (Puccinia recondita): 90 to 100% | pest or weed control at 500 µg/mL (Phakopsora pachyrhizi): 90 to 100%

CN(Nc1ncc(-c2nnc(C(F)F)o2)cn1)c1ccccc1 [I.108, 5-[5-(difluoromethyl)-1,3,4-oxadiazol-2-yl]-2-(2-methyl-2-phenylhydrazino)pyrimidine]
pest or weed control at 500 µg/mL (Puccinia recondita): 70 to 79% | chromatographic logP [1, 3]: 2.23

ON(Cc1ccccc1)c1ncc(-c2nnc(C(F)F)o2)cn1 [I.110, N-benzyl-5-[5-(difluoromethyl)-1,3,4-oxadiazol-2-yl]-N-hydroxypyrimidin-2-amine]
chromatographic logP [1, 3]: 2.23 | pest or weed control at 500 µg/mL (Phakopsora pachyrhizi): 90 to 100% | inhibition of growth at 20 µg/mL [2]: 90 to 100% | pest or weed control at 500 µg/mL (Alternaria brassicae): 90 to 100%

FC(F)c1nnc(-c2cnc(NC3(c4ccccn4)CC3)nc2)o1 [I.121, 5-[5-(difluoromethyl)-1,3,4-oxadiazol-2-yl]-N-[1-(pyridin-2-yl)cyclopropyl]pyrimidin-2-amine]
pest or weed control at 500 µg/mL (Puccinia recondita): 70 to 79% | chromatographic logP [1, 3]: 0.93 | pest or weed control at 500 µg/mL (Phakopsora pachyrhizi): 90 to 100%

COc1ccccc1C1(Nc2ncc(-c3nnc(C(F)F)o3)cn2)CC1 [I.155, 5-[5-(difluoromethyl)-1,3,4-oxadiazol-2-yl]-N-[1-(2-methoxyphenyl)cyclopropyl]pyrimidin-2-amine]
pest or weed control at 500 µg/mL (Puccinia recondita): 80 to 89% | chromatographic logP [1, 3]: 3.06 | pest or weed control at 500 µg/mL (Phakopsora pachyrhizi): 90 to 100%

Fc1ccccc1C1(Nc2ncc(-c3nnc(C(F)F)o3)cn2)CCCC1 [I.171, 5-[5-(difluoromethyl)-1,3,4-oxadiazol-2-yl]-N-[1-(2-fluorophenyl)cyclopentyl]pyrimidin-2-amine]
chromatographic logP [1, 4]: 3.74 | pest or weed control at 500 µg/mL (Phakopsora pachyrhizi): 70 to 79% | inhibition of growth at 20 µg/mL [2]: 70 to 79% | pest or weed control at 500 µg/mL (Alternaria brassicae): 80 to 89%

COC(=O)c1ccc(C2(Nc3ncc(-c4nnc(C(F)F)o4)cn3)CC2)cc1 [I.180, methyl 4-[1-({5-[5-(difluoromethyl)-1,3,4-oxadiazol-2-yl]pyrimidin-2-yl}amino)cyclopropyl]benzoate]
pest or weed control at 500 µg/mL (Puccinia recondita): 70 to 79% | chromatographic logP [1, 4]: 2.51
